Measured values from PubChem BioAssay AID192 (DTP/NCI, 2004).
“And” between values parts separate entries of the source, which are not always exact repeats. Identical values can stand only once. Toxic doses and inconclusive results are not listed.

System: BDF1 mice, B16 melanoma ip, median survival T/C
Assay: NCI In Vivo Anticancer Drug Screen. Data for tumor model B16 Melanoma (intraperitoneal) in B6D2F1 (BDF1) mice
Conditions: endpoint: median survival time, higher = longer survival
How it was run: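 Antitumor activity is assessed in mice bearing a transplanted tumor, with survival or tumor size compared against vehicle-dosed controls and expressed as T/C.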

[1] = dose: 10.0 mg/kg/injection, schedule: Q01DX009 (ip), vehicle: saline with Tween-80
[2] = dose: 1.25 mg/kg/injection, schedule: Q01DX009 (ip), vehicle: Klucel (hydroxypropylcellulose) (HPC)
[3] = dose: 100.0 mg/kg/injection, schedule: Q01DX009 (ip), vehicle: Klucel (hydroxypropylcellulose) (HPC)
[4] = dose: 5.0 mg/kg/injection, schedule: Q01DX009 (ip), vehicle: saline
[5] = dose: 1.56 mg/kg/injection, schedule: Q01DX009 (ip), vehicle: Klucel (hydroxypropylcellulose) (HPC)
[6] = dose: 3.12 mg/kg/injection, schedule: Q01DX009 (ip), vehicle: Klucel (hydroxypropylcellulose) (HPC)
[7] = dose: 6.25 mg/kg/injection, schedule: Q01DX009 (ip), vehicle: Klucel (hydroxypropylcellulose) (HPC)
[8] = dose: 12.5 mg/kg/injection, schedule: Q01DX009 (ip), vehicle: Klucel (hydroxypropylcellulose) (HPC)
[9] = dose: 100.0 mg/kg/injection, schedule: Q01DX009 (ip), vehicle: saline with Tween-80
[10] = dose: 100.0 mg/kg/injection, schedule: Q04DX003 (ip), vehicle: saline with Tween-80
[11] = dose: 200.0 mg/kg/injection, schedule: Q04DX003 (ip), vehicle: saline with Tween-80
[12] = dose: 6.25 mg/kg/injection, schedule: Q01DX009 (ip), vehicle: saline with Tween-80
[13] = dose: 12.5 mg/kg/injection, schedule: Q01DX009 (ip), vehicle: saline with Tween-80
[14] = dose: 25.0 mg/kg/injection, schedule: Q01DX009 (ip), vehicle: saline with Tween-80
[15] = dose: 50.0 mg/kg/injection, schedule: Q01DX009 (ip), vehicle: Klucel (hydroxypropylcellulose) (HPC)
[16] = dose: 200.0 mg/kg/injection, schedule: Q01DX009 (ip), vehicle: Klucel (hydroxypropylcellulose) (HPC)

In the case of `O=[N+]([O-])c1cccc([N+](=O)[O-])c1Cl`, the T/C [1] is reported as 99 % of control, the T/C (dose: 20.0 mg/kg/injection, schedule: Q01DX009 (ip), vehicle: saline with Tween-80) is reported as 94 % of control and the T/C (dose: 40.0 mg/kg/injection, schedule: Q01DX009 (ip), vehicle: saline with Tween-80) is reported as 95 % of control. For the same compound, the T/C (dose: 80.0 mg/kg/injection, schedule: Q01DX009 (ip), vehicle: saline with Tween-80) was 93 % of control and the T/C (dose: 160.0 mg/kg/injection, schedule: Q01DX009 (ip), vehicle: saline with Tween-80) was 91 % of control.

For `CCc1ccc2c(c1)N(CC(C)CN(C)C)c1ccccc1S2` (stereo unspecified), the T/C (dose: 0.78 mg/kg/injection, schedule: Q01DX009 (ip), vehicle: saline) was 105 % of control, the T/C (dose: 1.56 mg/kg/injection, schedule: Q01DX009 (ip), vehicle: saline) was 87 % of control and 111 % of control and the T/C (dose: 3.12 mg/kg/injection, schedule: Q01DX009 (ip), vehicle: saline) was 98 % of control and 108 % of control.

In the case of `Nc1cc(Cl)c2cccnc2c1O`, the T/C (dose: 22.0 mg/kg/injection, schedule: Q01DX009 (ip), vehicle: saline) is reported as 115 % of control, the T/C (dose: 33.0 mg/kg/injection, schedule: Q01DX009 (ip), vehicle: saline) is reported as 120 % of control and the T/C (dose: 44.0 mg/kg/injection, schedule: Q04DX003 (ip), vehicle: saline) is reported as 106 % of control. For the same compound, the T/C (dose: 66.0 mg/kg/injection, schedule: Q04DX003 (ip), vehicle: saline) was 106 % of control and the T/C (dose: 100.0 mg/kg/injection, schedule: Q04DX003 (ip), vehicle: saline) was 86 % of control.

`c1ccc2c(NCCCCCCNc3c4ccccc4nc4ccccc34)c3ccccc3nc2c1` was tested, and the T/C [2] was 124 % of control, the T/C (dose: 10.0 mg/kg/injection, schedule: Q01DX009 (ip), vehicle: Klucel (hydroxypropylcellulose) (HPC)) was 174 % of control and the T/C (dose: 20.0 mg/kg/injection, schedule: Q01DX009 (ip), vehicle: Klucel (hydroxypropylcellulose) (HPC)) was 179 % of control.

`CCN(C(=O)Nc1ccccc1OC)c1ccccc1` was tested, and the T/C [3] was 89 % of control.

With `C=C(NC(C)=O)C(=O)CCC(N)=O` the T/C [4] was 92 % of control, the T/C (dose: 10.0 mg/kg/injection, schedule: Q01DX009 (ip), vehicle: saline) was 102 % of control and the T/C (dose: 20.0 mg/kg/injection, schedule: Q01DX009 (ip), vehicle: saline) was 97 % of control.

With `O=C1c2ccccc2C(=O)N1CCC[P+](c1ccccc1)(c1ccccc1)c1ccccc1` the T/C [5] was 100 % of control, the T/C [6] was 102 % of control and the T/C [7] was 96 % of control. The T/C [8] was 100 % of control.

`CN(C)N=Nc1ccc(NC(N)=O)cc1` was tested, and the T/C (dose: 18.75 mg/kg/injection, schedule: Q01DX009 (ip), vehicle: Klucel (hydroxypropylcellulose) (HPC)) was 123 % of control and the T/C (dose: 37.5 mg/kg/injection, schedule: Q01DX009 (ip), vehicle: Klucel (hydroxypropylcellulose) (HPC)) was 86 % of control.

In the case of `CC(=O)N\C(N)=N/N=C\C(C)=N/N=C(\N)NC(C)=O`, the T/C (dose: 50.0 mg/kg/injection, schedule: Q01DX009 (ip), vehicle: saline with Tween-80) is reported as 108 % of control, the T/C [9] is reported as 99 % of control and the T/C (dose: 200.0 mg/kg/injection, schedule: Q01DX009 (ip), vehicle: saline with Tween-80) is reported as 94 % of control.

For `CC[C@@]1(O)C(=O)OCc2c1cc1n(c2=O)Cc2cc3cc(O)ccc3nc2-1`, the T/C (dose: 0.2 mg/kg/injection, schedule: Q01DX009 (ip), vehicle: other) was 157 % of control, the T/C (dose: 0.39 mg/kg/injection, schedule: Q01DX009 (ip), vehicle: other) was 151 % of control and the T/C (dose: 0.79 mg/kg/injection, schedule: Q01DX009 (ip), vehicle: other) was 179 % of control. For the same compound, the T/C (dose: 1.57 mg/kg/injection, schedule: Q01DX009 (ip), vehicle: other) was 184 % of control.

In the case of `CCCCC(CC)COP(OCC(CC)CCCC)OCC(CC)CCCC` (stereo unspecified), the T/C [10] is reported as 93 % of control and the T/C [11] is reported as 86 % of control.

In the case of `O=C(Nc1ccc([N+](=O)[O-])cc1)Nc1ccc([N+](=O)[O-])c(C(F)(F)F)c1`, the T/C [12] is reported as 100 % of control, the T/C [13] is reported as 100 % of control and the T/C [14] is reported as 90 % of control.

In the case of `Nc1nc(N)c2cc(CNc3ccc(C(=O)NC(CC(=O)O)CC(=O)O)cc3)ccc2n1`, the T/C (dose: 0.04 mg/kg/injection, schedule: Q01DX009 (ip), vehicle: Klucel (hydroxypropylcellulose) (HPC)) is reported as 109 % of control, the T/C (dose: 0.09 mg/kg/injection, schedule: Q01DX009 (ip), vehicle: Klucel (hydroxypropylcellulose) (HPC)) is reported as 95 % of control and the T/C (dose: 0.19 mg/kg/injection, schedule: Q01DX009 (ip), vehicle: Klucel (hydroxypropylcellulose) (HPC)) is reported as 104 % of control. The T/C (dose: 0.39 mg/kg/injection, schedule: Q01DX009 (ip), vehicle: Klucel (hydroxypropylcellulose) (HPC)) was 95 % of control, the T/C (dose: 0.78 mg/kg/injection, schedule: Q01DX009 (ip), vehicle: Klucel (hydroxypropylcellulose) (HPC)) was 95 % of control and 112 % of control and the T/C [5] was 112 % of control. The T/C [6] was 93 % of control, the T/C [7] was 93 % of control and the T/C [8] was 90 % of control and 101 % of control and 102 % of control. The T/C (dose: 25.0 mg/kg/injection, schedule: Q01DX009 (ip), vehicle: Klucel (hydroxypropylcellulose) (HPC)) was 98 % of control and 124 % of control and the T/C [15] was 99 % of control.

For `C=C(C)C12CC(COC(=O)c3ccccc3)C34OC5(OC1C3C1OC1(CO)C(O)C1(O)C(OC(=O)c3ccccc3)C(C)C(C(C)CCCCCCC5O)C14)O2` (stereo unspecified), the T/C (dose: 3.8 micrograms/kg/injection, schedule: Q01DX009 (ip), vehicle: saline with Tween-80) was 93 % of control and the T/C (dose: 7.5 micrograms/kg/injection, schedule: Q01DX009 (ip), vehicle: saline with Tween-80) was 97 % of control.

`CCC(N)Cc1ccc(OC)c(OC)c1` (stereo unspecified) was tested, and the T/C [15] was 97 % of control, the T/C [3] was 102 % of control and the T/C [16] was 105 % of control.

With `O=C(OCc1ccccc1)C(=O)OCc1ccccc1` the T/C [9] was 121 % of control, the T/C [10] was 100 % of control and the T/C [11] was 107 % of control.

With `C[C@]12CC[C@H]3[C@@H](CCC4=C[C@@H](OC5OCC(OC6OC(CO)C(O)C(O)C6O)C(O)C5O)CC[C@@]43C=O)[C@@]1(O)CCC2C1=CC(=O)OC1` (stereo partly specified) the T/C (dose: 1.25 mg/kg/injection, schedule: Q01DX009 (ip), vehicle: saline) was 100 % of control, the T/C (dose: 2.5 mg/kg/injection, schedule: Q01DX009 (ip), vehicle: saline) was 105 % of control and the T/C [4] was 89 % of control.

With `Nc1nc2nc[nH]c2c(=O)[nH]1` the T/C (dose: 25.0 mg/kg/injection, schedule: Q01DX009 (ip), vehicle: suspension in saline) was 95 % of control, the T/C (dose: 50.0 mg/kg/injection, schedule: Q01DX009 (ip), vehicle: suspension in saline) was 97 % of control and the T/C (dose: 100.0 mg/kg/injection, schedule: Q01DX009 (ip), vehicle: suspension in saline) was 88 % of control. For the same compound, the T/C (dose: 200.0 mg/kg/injection, schedule: Q01DX009 (ip), vehicle: suspension in saline) was 86 % of control.

For `[Cl][Pt+2][Cl].[NH-]c1ccccc1[NH-]`, the T/C (dose: 0.63 mg/kg/injection, schedule: Q01DX009 (ip), vehicle: saline with Tween-80) was 117 % of control, the T/C [2] was 100 % of control and 123 % of control and the T/C (dose: 1.25 mg/kg/injection, schedule: Q01DX009 (ip), vehicle: saline with Tween-80) was 117 % of control. The T/C (dose: 2.5 mg/kg/injection, schedule: Q01DX009 (ip), vehicle: Klucel (hydroxypropylcellulose) (HPC)) was 92 % of control, the T/C (dose: 2.5 mg/kg/injection, schedule: Q01DX009 (ip), vehicle: saline with Tween-80) was 122 % of control and the T/C [1] was 92 % of control.

For `COc1ccc(NC2=C(C)C(=O)C3=C(C2=O)[C@H](COC(N)=O)[C@]2(OC)[C@@H]4N[C@@H]4CN32)cc1OC`, the T/C (dose: 3.0 mg/kg/injection, schedule: Q04DX003 (ip), vehicle: water) was 223 % of control and the T/C (dose: 6.0 mg/kg/injection, schedule: Q04DX003 (ip), vehicle: water) was 312 % of control.

For `Cc1ccc(C)c(CCN)c1`, the T/C [13] was 104 % of control and the T/C [14] was 97 % of control.

`CC1CCC2(CC1)CCN(CCCN(C)C)CC2` was tested, and the T/C (dose: 50.0 mg/kg/injection, schedule: Q01DX009 (ip), vehicle: saline) was 99 % of control and the T/C (dose: 100.0 mg/kg/injection, schedule: Q01DX009 (ip), vehicle: saline) was 110 % of control.

With `Cc1ccc(NC(=O)COc2cc(Cl)c(Cl)cc2Cl)c([N+](=O)[O-])c1` the T/C [3] was 93 % of control and the T/C [16] was 100 % of control.

In the case of `Cc1cc2cc3cc(C)c(N)cc3nc2cc1N`, the T/C (dose: 3.12 mg/kg/injection, schedule: Q01DX009 (ip), vehicle: saline with Tween-80) is reported as 116 % of control, the T/C [12] is reported as 121 % of control and the T/C [14] is reported as 119 % of control.
